Measurements as given in paper PMC10924921, “Mi-2β promotes immune evasion in melanoma by activating EZH2 methylation” (Nature Communications, 2024).
“Also recorded” adds a separate entry of the source.

How the values were obtained:
[1] = system: tumor-infiltrating lymphocytes in BRafV600E/Ptennull melanoma; assay: Flow cytometry of tumor-infiltrating lymphocytes, genetically engineered model; assay type: in vivo, mouse
Method: Mi-2β^lox/lox mice were generated and generously provide by Dr. Georgopoulos lab (Massachusetts General Hospital at Harvard Medical School)[31]. Tyr::CreER;BRaf^CA;Pten^lox/lox mice were purchased from Jackson laboratories (Stock No: 013590). All strains of mice were on the background of C57BL/6J background. Gene activation and silencing were induced with intraperitoneal (i.p.) administration of 100 µL/mouse/day tamoxifen (20 mg/mL) for constant 5 days. […] Tumor growth was then monitored each the other day. […] When the following conditions occur, the mouse is regarded as dead and euthanized, including weight loss greater than 15%; significant abdominal distension, especially if it begins to compromise respiratory ability of animal; hunched posture; failure to eat or drink; absence of (or abnormal) feces or urine output; reluctance to move or abnormal gait; Discharges or hemorrhage. Abnormal behavior or vocalizations and tumor size exceeded 1 cm^3. All animal experiments were done according to protocols approved by the ethics committee review board of Boston University and in accordance with the guidelines set forth by the US National Institutes of Health and The ethics committee review board of The 2nd Hospital and School of Medicine, Zhejiang University. […]

[2] = biological target: recombinant purified human Mi-2β protein (Homo sapiens, UniProt Q14839); assay: FRET-based nucleosome repositioning assay (EpiDyne-FRET); conditions: for IC50: IC50 against Mi-2β
Sequence of recombinant purified human Mi-2β protein (Q14839 whole entry): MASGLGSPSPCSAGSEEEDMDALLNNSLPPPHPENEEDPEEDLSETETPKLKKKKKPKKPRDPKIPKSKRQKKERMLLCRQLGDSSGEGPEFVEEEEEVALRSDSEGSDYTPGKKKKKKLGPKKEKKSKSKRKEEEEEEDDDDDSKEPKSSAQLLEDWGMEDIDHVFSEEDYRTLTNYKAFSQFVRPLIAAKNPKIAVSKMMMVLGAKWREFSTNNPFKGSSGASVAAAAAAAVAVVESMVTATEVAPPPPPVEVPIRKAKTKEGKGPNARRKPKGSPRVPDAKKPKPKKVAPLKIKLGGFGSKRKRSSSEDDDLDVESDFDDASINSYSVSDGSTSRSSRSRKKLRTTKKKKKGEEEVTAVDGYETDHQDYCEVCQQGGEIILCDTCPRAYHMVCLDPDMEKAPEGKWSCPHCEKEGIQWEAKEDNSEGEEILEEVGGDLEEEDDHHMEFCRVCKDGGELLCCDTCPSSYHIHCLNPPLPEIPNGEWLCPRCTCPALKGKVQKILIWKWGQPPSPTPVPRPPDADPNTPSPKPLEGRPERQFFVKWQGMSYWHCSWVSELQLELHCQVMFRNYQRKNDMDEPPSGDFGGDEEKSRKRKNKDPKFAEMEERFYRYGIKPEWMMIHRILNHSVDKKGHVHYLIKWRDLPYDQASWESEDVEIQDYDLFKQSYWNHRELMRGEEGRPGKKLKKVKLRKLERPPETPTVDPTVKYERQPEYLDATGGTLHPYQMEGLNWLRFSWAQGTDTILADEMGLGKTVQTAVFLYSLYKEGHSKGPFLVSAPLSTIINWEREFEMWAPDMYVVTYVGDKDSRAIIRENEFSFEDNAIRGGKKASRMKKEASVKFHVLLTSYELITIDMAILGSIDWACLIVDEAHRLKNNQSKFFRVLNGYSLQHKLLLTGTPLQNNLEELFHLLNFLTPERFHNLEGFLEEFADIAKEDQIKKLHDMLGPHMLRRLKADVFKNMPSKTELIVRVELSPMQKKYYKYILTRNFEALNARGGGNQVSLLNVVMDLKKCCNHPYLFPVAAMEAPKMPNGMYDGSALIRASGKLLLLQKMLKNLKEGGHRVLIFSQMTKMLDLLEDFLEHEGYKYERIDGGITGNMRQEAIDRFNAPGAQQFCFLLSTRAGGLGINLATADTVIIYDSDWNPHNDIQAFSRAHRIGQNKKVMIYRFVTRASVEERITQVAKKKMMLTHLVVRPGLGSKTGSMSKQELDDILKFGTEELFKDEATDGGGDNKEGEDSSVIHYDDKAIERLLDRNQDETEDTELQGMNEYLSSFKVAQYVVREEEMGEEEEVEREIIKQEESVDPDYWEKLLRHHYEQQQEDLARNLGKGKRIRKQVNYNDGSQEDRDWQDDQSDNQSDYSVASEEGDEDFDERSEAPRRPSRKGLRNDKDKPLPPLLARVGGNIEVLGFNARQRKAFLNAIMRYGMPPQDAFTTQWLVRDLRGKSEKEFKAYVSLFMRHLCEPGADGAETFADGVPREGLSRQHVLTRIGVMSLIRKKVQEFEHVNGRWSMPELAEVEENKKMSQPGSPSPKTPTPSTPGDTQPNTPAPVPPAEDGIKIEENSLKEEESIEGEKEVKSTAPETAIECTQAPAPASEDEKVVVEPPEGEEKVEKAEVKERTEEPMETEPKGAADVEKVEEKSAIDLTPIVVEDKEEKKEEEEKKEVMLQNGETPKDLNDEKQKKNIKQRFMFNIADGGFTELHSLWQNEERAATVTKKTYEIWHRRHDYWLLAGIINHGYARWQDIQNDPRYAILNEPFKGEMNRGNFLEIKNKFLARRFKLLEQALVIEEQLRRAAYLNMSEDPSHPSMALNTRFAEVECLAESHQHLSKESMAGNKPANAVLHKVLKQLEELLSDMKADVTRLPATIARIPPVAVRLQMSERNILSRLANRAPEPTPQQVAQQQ

B16F10 cell graft = assay: Antibody-mediated CD8 T-cell depletion and Z36-MP5 treatment; assay type: in vivo, mouse; conditions: Z36-MP5 30 mg/kg, 200 µg anti-CD8
Mi-2β mutation (H727A) = biological target: T1, Mi-2β mutation (H727A) (Homo sapiens, UniProt Q14839, H727A); assay: FRET-based nucleosome repositioning assay with mutant Mi-2β; assay type: biochemical; conditions: ATP 1 mM, Z36-MP5 10 µM
T1 construct: made in house
T1 sequence (Q14839 whole entry H727A): as the sequence (Q14839 whole entry) above, with H727A counted along it
Method: based nucleosome repositioning assays were performed with different concentrations of Mi-2β and a non-
limiting ATP concentration (1 mM) for the indicated incubation time (n=3). c The ATP titration
(concentrations ranging from 0.1 to 300 µM) was performed with the FRET-based nucleosome
time. […] Values represent mean
based nucleosome repositioning assays.

[3] = system: tumor-infiltrating lymphocytes in B16F10 graft; assay: Flow cytometry of tumor-infiltrating lymphocytes, B16F10 graft; assay type: in vivo, C57BL/6 mice
Method: Tumors were minced with scissors, and then digested with the digestion buffer (RPMI 1640 medium, 5% FBS, 1% penicillin-streptomycin, 25 mM HEPES, and 300 U collagenase (Sigma C0130)) on a shaker at 37 °C for 2 hours. Single cells were prepared through a 70 μm cell strainer. Erythrocytes were removed by incubation in red blood cell lysis buffer (R7757, Sigma) at room temperature for 5 min. The cells were prepared in PBS (with concentration of ~2 × 10^7) for studies.
The single-cell suspension were fixed with 2% paraformaldehyde solution (J19943K2, Thermo Scientific). CD45 + T cells were selected from single-cell suspension (about 2 × 10^7 cells digest from […] tumor tissue) by flow cytometry with the follow antibodies (anti-mouse CD45; BD pharmingen, 561875). And then the cells were stained anti-mouse CD3e PE (145-2C11, BD pharmingen, 553063), anti-mouse CD4 FITC (RM4-5, BD pharmingen, 553046), anti-mouse CD4 PE/Cy7 (GK1.5, BioLegend, 100421), anti-mouse CD8 FITC (53-6.7, BD pharmingen, 553031), anti-mouse CD8a APC/Cy7 (53-6.7, BioLegend 100713), anti-mouse IFN-γ PE (XMG1.2, eBioscience, 12731181), anti-mouse CD69 PE (H1.2F3, Biolegend, 104508), anti-mouse CD25 Alexa Fluor 488 (PC61.5, eBioscience, 53025182), anti-mouse CD107a-V450 (1D4B, BD, 560648), anti-human/mouse granzyme B FITC (GB11, BioLegend, 515403). […]

468 kinases = assay: KINOMEscan screening (DiscoveRx); assay type: binding; conditions: 1000 nM
B16F10 cells = assay: CCK-8 cell proliferation; assay type: cell-based, mouse; conditions: CCK-8, B16F10 cells
Method: To test whether Z36-MP5 affects cell proliferation, cells were seeded into 96-well plates at a density of 1 × 10^3 cells/100 μl per well. CCK-8 was used to detect changes in proliferation ability after 3 days of treatment with Z36-MP5 (25 μM). To test whether Mi-2β expression in T cells or treatment of T cells with Z36-MP5 affects the ability of T cells to kill tumor cells, Mi-2β in Pmel-1 T cells was manipulated or Pmel-1 cells were exposed to Z36-MP5 (25 μM) for 24 hrs. The number of cells was quantified. One thousand Pmel-1 T cells were then co cultured with 1000 tumor cells for 24 hrs, and the number of tumor cells was counted.
Supplementary Figure 8. In vitro assay for Mi-2β inhibitors. a The body weight changes of C57BL/6J mice treated with Z36-MP5 (30 mg/kg/day) for 2 weeks. Data are mean ± SEM (n=5). b H&E staining of tissues in C57BL/6J mice treated with or without Z36 -MP5 (30 mg/kg/day) for 2 weeks. […]
The growth of tumor grafts was measured. n = 5. g Mice bearing B16F10 cell s were treated with MS177 (100 mg/kg, 5 days) and then Z36 -MP5 (30 mg/kg/day) or vehicles, accompanied with anti -PD-1 antibody […]

Cn1c(=O)[nH]c2ccc(-c3cccc(C(=O)NC4CCn5ccnc5C4)c3)cc21 (stereo not shown) [Z36-MP5]
CD4+ T-cell and Treg populations [1]: not affected
CD8+ T-cell population [1]: moderately induced
inhibition of Mi-2β ATPase ([2]; 1 µM): completely inhibits
IC50 ([2]; ATP 10 μM): 79 ± 13 nM
IC50 ([2]; ATP 30 μM): 198 ± 33 nM
IC50 ([2]; ATP 100 μM): 576 ± 86 nM
IC50 ([2]; ATP 300 μM): 1660 ± 358 nM
IC50 ([2]; Mi-2β chromatin modulatory activity, n = 3): 82 ± 13 nM
mode of inhibition ([2]; IC50 increased with ATP 10–300 µM): ATP-competitive inhibitor
potency relative to the original compound Z36 ([2]; ratio of IC50 values): ~ 85 fold
effectiveness after neutralization of CD8 T cells (B16F10 cell graft): completely abolished the effectiveness
sensitivity of Mi-2β H727A mutant to inhibitor (Mi-2β mutation (H727A)): no longer sensitive; also recorded: histidine 727 of Mi-2β dependent
CD8+ T-cell TILs in graft melanomas [3]: moderate increase
GZMB expression and activation markers CD69, IFN-γ, CD25, CD107 in tumor-infiltrating CD8+ T cells [3]: upregulation
activity against 468 kinases (468 kinases): extremely high kinase selectivity; also recorded: not significantly active on any targets tested
proliferation of tumor cells (B16F10 cells): not significantly inhibited
